Earlier results as cited in article PMC2765482 (Journal of medicinal chemistry, 2009).
Marks after values point to notes of the source that are not given here.

Columns and labels:
[1] = test system: Staphylococcus aureus strain ATCC 25923 (vancomycin-sensitive); details: vancomycin-sensitive strain ATCC 25923; ref [18b] (text: ref [4],[18])
[2] = test system: Enterococcus faecalis strain BM4166 (vancomycin-resistant, VanA); details: ref [18b]
[3] = test system: N,N′-Ac2-L-Lys-D-Ala-D-Ala (2); details: ligand N,N′-Ac2-L-Lys-D-Ala-D-Ala; ref [4]
[4] = test system: N,N′-Ac2-L-Lys-D-Ala-D-Lac (3); details: for Association Constants 3 (Ka): ligand N,N′-Ac2-L-Lys-D-Ala-D-Lac, ref [4]
[5] = test system: vancomycin-sensitive bacteria and vancomycin-resistant Enterococci (VRE); details: against vancomycin-sensitive bacteria and VRE; ref [9]
[6] = test system: Enterocococci bacterial strains, VanA and VanB; details: VanA and VanB resistant versus sensitive; ref [1d,k]
[7] = versus vancomycin; ref [11]

Substance | MIC S. aureus [1] | MIC E. faecalis [2] | Association Constants 2 (Ka) [3] | Association Constants 3 (Ka) [4] | more active than vancomycin [5] | reduction of affinity for the ligand on D-Ala to D-Lac modification (NH→O) ([4]; D-Ala-D-Lac versus D-Ala-D-Ala ligand, ref [1d,k]) | drop in antimicrobial activity [6] | enhancement of antimicrobial properties [7]
vancomycin aglycon [Compound 5] | 0.625 ^e µg/mL | 640 ^e µg/mL | 1.7 ^f ×10^5 M^−1 | 1.2 ^f ×10^2 M^−1 | – | – | – | –
Chlorobiphenyl vancomycin | – | – | – | – | ca. 100 fold | – | – | –
Vancomycin [Compound 1] | 1.25 ^e µg/mL | 2000 ^e µg/mL | 2.0 ^f ×10^5 M^−1 | 1.8 ^f ×10^2 M^−1 | – | 1000 fold | 1000 fold | –
N-demethylvancomycin | – | – | – | – | – | – | – | 2 fold
